Assay results taken from US20210268070A1, “Use of Immunomodulators to Control Infection and Stimulate Healing in Normal and Diabetic Wounds” (priority 2018, published 2021).

B1: Chemokine (C-C motif) ligand 3 (protein, listed as Homo sapiens)
chain: MQVSTAALAVLLCTMALCNQFSASLAADTPTACCFSYTSRQIPQNFIADYFETSSQCSKPGVIFLTKRSRQVCADPSEEWVQKYVSDLELSA
notes: class 1 immunomodulator

How the values were obtained:
P. aeruginosa PA103 = assay: Implant model of infection with PA103; assay type: in vivo; conditions: C57B mice, 10^6 PA103, topical at surgical site at time of surgery & infection, 10 ng or 100 ng, dose-dependent, 24 h following infection, FIG. 2A
Description: The implant model of infection in C57B mice was used for 10^6 PA103 (FIG. 2A) or 10^6 USA300 MRSA (FIG. 2C). The wound model of infection was used for 10^6 PA103 in C57BL mice (FIG. 2B) or diabetic db/db mice (FIG. 2D). Infection was carried out at the time of surgery by adding bacteria directly to the surgical sites. Immunomodulators, namely, LPS (10 ng or 100 ng), fMLP (10 ng or 100 ng), CCL3 (1 μg) were added topically at the surgical sites at the time of surgery & infection. GM-CSF (10 μg/kg), tobramycin (Tob at 3.5 mg/kg), and vancomycin (40 mg/kg) were added systemically by i.p. injection 1 h before surgical implantation and infection. Infection levels were determined 24 h following infection (N>4 animals/group; NS=not significant, * p<0.01, ** p<0.001, ***p<0.0001 One-way ANOVA).
We assessed these immunomodulators for their ability to control wound and/or implant SS's in normal (C57BL/6) or diabetic (db/db) mice. We acknowledge that diabetic individuals are not as immunocompromised as other immunocompromised patient groups. […] All immunomodulators were added locally at the surgical sites at the time of infection, except GM-CSF (10 μg/kg) which was administered systemically by i.p. injection 1 h prior to surgery per its FDA-approved route of delivery. […] CCL3 and GM-CSF are also tested using the implant model of infection. Here, we tested CCL3 and GM-CSF in the wound model of infection in C57B mice.
(§1) Implant surgery and wound surgery and surgical site infection are performed according to the following method. On the day of surgery, all mice are anesthetized by an intraperitoneal injection of a ketamine/xylazine mixture (90 mg/kg ketamine+5 mg/kg xylazine for mice). The back of the animals is shaved using an electric shave and scrubbed with alcohol swabs 3 times, a topical antiseptic solution (Hibiclens; chlorhexidine gluconate) is applied to the skin. The surgical procedures are performed with sterile instruments, sterile surgical gloves, and aseptic techniques as follows. […]

S. aureus = S. aureus surgical site infection, implant model; assay type: in vivo; conditions: S. aureus 10^6 CFU, titers after 1 day, compared to PBS, FIGS. 5A and 5B
Description: FIGS. 5A and 5B illustrate that PAMPs are effective in controlling S. aureus surgical site infection as prophylactic antibiotic standard therapy. S. aureus (10^6 CFU). S. aureus titers after 1 day. Significance determined as compared to PBS *<0.05, **p<0.01, ***p<0.001, ****p<0.0001.
We next examined the impact of CCL3 topical treatment on leukocyte migration by H&E staining, and on leukocyte activation by myeloperoxidase (MPO) measurements by ELISA. (MPO is primarily used as a marker for neutrophil activation but it can also be expressed to lesser extent in macrophages).
as §1, with “follows. For wound surgical procedure, a sterile biopsy punch (5-7 mm diameter) is used to punch through the full thickness of the back skin below the shoulder blades. Four 5-7 mm skin wounds are made on the back of each mouse.” for “follows.”

diabetic wounds = assay: Collagen deposition and wound healing in infected diabetic wounds; assay type: in vivo, db/db mice; conditions: P. aeruginosa PA103 10^3 infected, compared to PBS
Description: FIGS. 11A-11C illustrate that CCL3 increases infection control (11A), collagen deposition (11B) and enhances wound healing (11C) in diabetic wounds. P. aeruginosa PA103 10^3N=4; Significance determined as compared to PBS *<0.05, **p<0.01, ***p<0.001.
(§2) As discussed above immunomodulatory therapies enhance infection control in both normal and diabetic models. FIGS. 11A-11C illustrate that CCL3 increases infection control (11A) increases collagen deposition (11B) and enhances wound healing (11C) in diabetic wounds. Immunomodulators may also be used to enhance wound healing in uninfected diabetic wounds.
as §1, with “follows. For wound surgical procedure, a sterile biopsy punch (5-7 mm diameter) is used to punch through the full thickness of the back skin below the shoulder blades. Four 5-7 mm skin wounds are made on the back of each mouse.” for “follows.”

[1] = tested on: diabetic uninfected wounds; assay: Wound healing in diabetic uninfected wounds; assay type: in vivo, db/db mice; conditions: FIG. 14
Description: FIG. 14 illustrates CCL3 enhances wound healing in diabetic uninfected wounds.
as §2
as §1, with “follows. For wound surgical procedure, a sterile biopsy punch (5-7 mm diameter) is used to punch through the full thickness of the back skin below the shoulder blades. Four 5-7 mm skin wounds are made on the back of each mouse. Wounds placed in this area cannot be reached by the animals and therefore are protected from self-licking.” for “follows.”

Molecule | P. aeruginosa infection levels on both the implants and tissues surrounding implants (P. aeruginosa PA103) | infection control in the implant model against S. aureus (S. aureus) | collagen deposition in diabetic wounds (diabetic wounds; FIG. 11B) | wound healing in diabetic wounds (diabetic wounds; FIG. 11C) | wound healing in diabetic uninfected wounds [1]
CSCC[C@H](NC=O)C(=O)N[C@@H](CC(C)C)C(=O)N[C@@H](Cc1ccccc1)C(=O)O [fMLP, N-Formylmethionyl-leucyl-phenylalanine] | significantly reduced | improved | – | – | –
lipopolysaccharide [LPS] | significantly reduced | improved | – | – | –
B1 | – | – | increases | enhances | enhances
